# The source made the active and inactive calls. The rule behind the calls is not given here.
# Legend:
# Candida albicans [1] = test: Antifungal activity against Candida albicans SC5314 incubated for 24 hrs by microdilution method; type: functional
# Candida albicans [2] = test: Antifungal activity against Candida albicans SC5314 assessed as fractional inhibitory concentration index incubated for 24 hrs in presence of fluconazole by microdilution method; type: functional
# Candida albicans [3] = test: Antifungal activity against Candida albicans SC5314 incubated for 24 hrs in presence of fluconazole by microdilution method; type: functional
# Candida albicans [4] = test: Antifungal activity against Candida albicans SC5314FR assessed as fractional inhibitory concentration index incubated for 24 hrs in presence of fluconazole by microdilution method; type: functional
# Candida albicans [5] = test: Antifungal activity against Candida albicans SC5314FR incubated for 24 hrs by microdilution method; type: functional
# Candida albicans [6] = test: Antifungal activity against Candida albicans SC5314FR incubated for 24 hrs in presence of fluconazole by microdilution method; type: functional, SC5314
# Candida albicans [7] = test: Induction of morphological changes in Candida albicans SC5314 assessed as appearance of blurred boundary between cell wall and cell membrane incubated for 16 hrs by TEM analysis; type: functional, organism-based; conditions: dose 0.15-0.6 µg/ml
# Candida albicans [8] = test: Antibiofilm activity against Candida albicans SC5314 assessed as inhibition of biofilm formation at 0.15 to 0.6 ug/mL incubated for 24 hrs by crystal violet staining based inverted microscopy analysis; type: functional, organism-based; conditions: dose 0.15-0.6 µg/ml
# Candida albicans [9] = test: Induction of morphological changes in Candida albicans SC5314 assessed as appearance of obvious defects incubated for 16 hrs by TEM analysis; type: functional, organism-based; conditions: dose 0.15-0.6 µg/ml
# Candida albicans [10] = test: Induction of morphological changes in Candida albicans SC5314 assessed as appearance of loose texture incubated for 16 hrs by TEM analysis; type: functional, organism-based; conditions: dose 0.15-0.6 µg/ml
# Candida albicans [11] = test: Induction of morphological changes in Candida albicans SC5314 assessed as chaotic dissolution of vacuoles incubated for 16 hrs by TEM analysis; type: functional, organism-based; conditions: dose 0.15-0.6 µg/ml
# Candida albicans [12] = test: Induction of morphological changes in Candida albicans SC5314 assessed as appearance of broken slag-like material incubated for 16 hrs by TEM analysis; type: functional, organism-based; conditions: dose 0.15-0.6 µg/ml
# Candida albicans [13] = test: Induction of morphological changes in Candida albicans SC5314 assessed as appearance of unclear cell membrane outline incubated for 16 hrs by TEM analysis; type: functional, organism-based; conditions: dose 0.15-0.6 µg/ml
# Candida albicans [14] = test: Induction of cell membrane permeability in Candida albicans SC5314 at 0.15 to 0.6 ug/mL incubated for 16 hrs by […] iodide staining based fluorescence microscopy; type: functional, organism-based; conditions: dose 0.15-0.6 µg/ml
# Candida albicans [15] = test: Induction of morphological changes in Candida albicans SC5314 assessed as leaking of intracellular substances incubated for 16 hrs by TEM analysis; type: functional, organism-based; conditions: dose 0.15-0.6 µg/ml
# Candida albicans [16] = test: Induction of morphological changes in Candida albicans SC5314 assessed as chaotic dissolution of cytoplasm incubated for 16 hrs by TEM analysis; type: functional, organism-based; conditions: dose 0.15-0.6 µg/ml
# Candida albicans [17] = test: Antibiofilm activity against Candida albicans SC5314 assessed as inhibition of biofilm formation at 0.3 ug/mL incubated for 24 hrs in presence of fluconazole by crystal violet staining based inverted microscopy analysis; type: functional, organism-based; conditions: dose 0.3 µg/ml
# [18] = target: T1, Lanosterol 14-alpha demethylase (Candida albicans (strain SC5314 / ATCC MYA-2876) (Yeast), UniProt P10613); test: Inhibition of CYP51 in Candida albicans SC5314 assessed as reduction in ergosterol content at 0.15 to 0.6 ug/mL incubated for 16 hrs by spectrophotometry analysis; conditions: at 0.15 to 0.6 µg/mL, dose 0.15-0.6 µg/ml
# Candida albicans [19] = test: Induction of morphological changes in Candida albicans SC5314 assessed as appearance of incomplete cell wall structure incubated for 16 hrs by TEM analysis; type: functional, organism-based; conditions: dose 0.15-0.6 µg/ml
# Candida albicans [20] = test: Antibiofilm activity against Candida albicans SC5314 assessed as inhibition of biofilm formation at 0.3 ug/mL incubated for 24 hrs by crystal violet staining based inverted microscopy analysis; type: functional, organism-based; conditions: dose 0.3 µg/ml
# Candida albicans [21] = test: Induction of morphological changes in Candida albicans SC5314 assessed as appearance of slightly blurred cytoplasm at 0.3 ug/ml incubated for 16 hrs by TEM analysis; type: functional, organism-based; conditions: dose 0.3 µg/ml
# Candida albicans [22] = test: Induction of cell membrane permeability in Candida albicans SC5314 at 0.3 ug/mL incubated for 16 hrs by […] iodide staining based fluorescence microscopy; type: functional, organism-based; conditions: dose 0.3 µg/ml
# [23] = target: T1, Lanosterol 14-alpha demethylase; test: Inhibition of CYP51 in Candida albicans SC5314 assessed as reduction in ergosterol content at 0.3 ug/mL incubated for 16 hrs by spectrophotometry analysis; conditions: at 0.3 µg/mL
# T1 sequence (P10613 whole entry): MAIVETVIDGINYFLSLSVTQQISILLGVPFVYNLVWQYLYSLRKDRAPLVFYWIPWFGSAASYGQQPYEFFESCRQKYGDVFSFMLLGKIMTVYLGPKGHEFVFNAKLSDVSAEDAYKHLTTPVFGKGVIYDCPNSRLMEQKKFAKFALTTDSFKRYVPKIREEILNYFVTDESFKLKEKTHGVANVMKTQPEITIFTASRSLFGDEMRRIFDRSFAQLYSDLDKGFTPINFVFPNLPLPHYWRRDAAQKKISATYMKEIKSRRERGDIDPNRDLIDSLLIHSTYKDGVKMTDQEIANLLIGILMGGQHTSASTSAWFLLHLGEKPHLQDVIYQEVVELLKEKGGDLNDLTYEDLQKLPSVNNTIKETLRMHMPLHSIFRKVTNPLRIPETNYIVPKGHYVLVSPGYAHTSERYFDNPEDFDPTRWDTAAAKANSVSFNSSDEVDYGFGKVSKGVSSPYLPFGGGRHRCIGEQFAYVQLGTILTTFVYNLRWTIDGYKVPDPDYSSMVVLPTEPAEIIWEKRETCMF
Compound,MIC50 (Candida albicans [1]),fractional inhibitory concentration index (FICI) (Candida albicans [2]),MIC50 (Candida albicans [3]),fractional inhibitory concentration index (FICI) (Candida albicans [4]),MIC50 (Candida albicans [5]),MIC50 (Candida albicans [6]),also measured
CC(=O)N1CCN(c2ccc(OCCN(CC(O)(Cn3cncn3)c3ccc(F)cc3F)S(=O)(=O)CCCCl)cc2)CC1 (stereo unspecified),0.66 µg/mL,0.33,0.16 µg/mL,2,> 200 µg/mL,> 200 µg/mL,–
CC(=O)N1CCN(c2ccc(OCCN(CC(O)(Cn3cncn3)c3ccc(F)cc3F)S(=O)(=O)c3ccc(Cl)cc3Cl)cc2)CC1 (stereo unspecified),0.02 µg/mL,4.55,0.09 µg/mL,2,> 200 µg/mL,> 200 µg/mL,Activity (Candida albicans [7]): Dose-Dependent Effect; inhibition (Candida albicans [8]): Active; Activity (Candida albicans [9]): Dose-Dependent Effect; Activity (Candida albicans [10]): Dose-Dependent Effect; Activity (Candida albicans [11]): Dose-Dependent Effect; Activity (Candida albicans [12]): Dose-Dependent Effect; Activity (Candida albicans [13]): Dose-Dependent Effect; Activity (Candida albicans [14]): Active; Activity (Candida albicans [15]): Dose-Dependent Effect; Activity (Candida albicans [16]): Dose-Dependent Effect; inhibition (Candida albicans [17]): Active; inhibition (INH) [18]: Active; Activity (Candida albicans [19]): Dose-Dependent Effect
C=CCN(CCOc1ccc(N2CCN(C(C)=O)CC2)cc1)CC(O)(Cn1cncn1)c1ccc(F)cc1F (stereo unspecified),7.13 µg/mL,1.51,2.17 µg/mL,1.07,115 µg/mL,95.7 µg/mL,–
CC(=O)N1CCN(c2ccc(OCCN(Cc3ccc(C(F)(F)F)cc3)CC(O)(Cn3cncn3)c3ccc(F)cc3F)cc2)CC1 (stereo unspecified),1.83 µg/mL,1.94,1.76 µg/mL,2,> 200 µg/mL,> 200 µg/mL,–
CC(=O)N1CCN(c2ccc(OCCN(CC(O)(Cn3cncn3)c3ccc(F)cc3F)S(=O)(=O)c3ccc(F)cc3)cc2)CC1 (stereo unspecified),0.1 µg/mL,1.69,0.16 µg/mL,2,> 200 µg/mL,> 200 µg/mL,–
CC(=O)N1CCN(c2ccc(OCCN(CC(O)(Cn3cncn3)c3ccc(F)cc3F)C(=O)c3cc(F)c(F)c(F)c3F)cc2)CC1 (stereo unspecified),0.31 µg/mL,0.53,0.14 µg/mL,2,> 200 µg/mL,> 200 µg/mL,–
CC(=O)N1CCN(c2ccc(OCCN(Cc3ccc(C#N)cc3)CC(O)(Cn3cncn3)c3ccc(F)cc3F)cc2)CC1 (stereo unspecified),0.99 µg/mL,1.08,0.68 µg/mL,2,> 200 µg/mL,> 200 µg/mL,–
CC(=O)N1CCN(c2ccc(OCCN(CC(O)(Cn3cncn3)c3ccc(F)cc3F)C(=O)c3ccc(Cl)cc3)cc2)CC1 (stereo unspecified),6.79 µg/mL,0.64,0.91 µg/mL,0.73,> 200 µg/mL,147 µg/mL,–
CC(=O)N1CCN(c2ccc(OCCN(CC(O)(Cn3cncn3)c3ccc(F)cc3F)C(=O)c3ccc(C(F)(F)F)cc3)cc2)CC1 (stereo unspecified),17.9 µg/mL,2.03,3.32 µg/mL,2,> 200 µg/mL,> 200 µg/mL,–
CC(=O)N1CCN(c2ccc(OCCN(CC(O)(Cn3cncn3)c3ccc(F)cc3F)C(=O)c3ccccc3Cl)cc2)CC1 (stereo unspecified),11.3 µg/mL,1.61,2.5 µg/mL,2,> 200 µg/mL,> 200 µg/mL,–
CC(=O)N1CCN(c2ccc(OCCN(Cc3ccc(Br)cc3)CC(O)(Cn3cncn3)c3ccc(F)cc3F)cc2)CC1 (stereo unspecified),5.71 µg/mL,1.58,2.17 µg/mL,2,> 200 µg/mL,> 200 µg/mL,–
COc1ccc(S(=O)(=O)N(CCOc2ccc(N3CCN(C(C)=O)CC3)cc2)CC(O)(Cn2cncn2)c2ccc(F)cc2F)cc1 (stereo unspecified),7.27 µg/mL,0.5,0.72 µg/mL,2,> 200 µg/mL,> 200 µg/mL,–
CC(=O)N1CCN(c2ccc(OCCN(CC(O)(Cn3cncn3)c3ccc(F)cc3F)S(=O)(=O)c3ccc(Cl)cc3)cc2)CC1 (stereo unspecified),8.49 µg/mL,2.61,3.88 µg/mL,13.42,33.2 µg/mL,> 200 µg/mL,–
OC(Cn1cncn1)(Cn1cncn1)c1ccc(F)cc1F [FLUCONAZOLE],1.8 µg/mL,–,–,–,> 200 µg/mL,–,inhibition (Candida albicans [20]): inactive; Activity (Candida albicans [21]): Active; Activity (Candida albicans [22]): inactive; inhibition (INH) [23]: Not Active
CC(=O)N1CCN(c2ccc(OCCN(Cc3ccc([N+](=O)[O-])cc3)CC(O)(Cn3cncn3)c3ccc(F)cc3F)cc2)CC1 (stereo unspecified),0.08 µg/mL,0.03,0.002 µg/mL,2,> 200 µg/mL,> 200 µg/mL,–
CC(=O)N1CCN(c2ccc(OCCN(Cc3ccc(Cl)cc3)CC(O)(Cn3cncn3)c3ccc(F)cc3F)cc2)CC1 (stereo unspecified),9.32 µg/mL,3.88,5.85 µg/mL,2,> 200 µg/mL,> 200 µg/mL,–
C#CCN(CCOc1ccc(N2CCN(C(C)=O)CC2)cc1)CC(O)(Cn1cncn1)c1ccc(F)cc1F (stereo unspecified),9.31 µg/mL,2.27,3.42 µg/mL,2,> 200 µg/mL,> 200 µg/mL,–
CC(=O)N1CCN(c2ccc(OCCN(CC(O)(Cn3cncn3)c3ccc(F)cc3F)S(=O)(=O)c3ccc(OC(F)(F)F)cc3)cc2)CC1 (stereo unspecified),0.84 µg/mL,0.45,0.26 µg/mL,2,> 200 µg/mL,> 200 µg/mL,–
CC(=O)N1CCN(c2ccc(OCCN(CC(O)(Cn3cncn3)c3ccc(F)cc3F)C(=O)c3c(Cl)cccc3Cl)cc2)CC1 (stereo unspecified),6.25 µg/mL,0.4,0.56 µg/mL,2,> 200 µg/mL,> 200 µg/mL,–
CC(=O)N1CCN(c2ccc(OCCN(CC(O)(Cn3cncn3)c3ccc(F)cc3F)S(=O)(=O)c3ccc(Br)cc3)cc2)CC1 (stereo unspecified),0.2 µg/mL,0.22,0.04 µg/mL,2,> 200 µg/mL,> 200 µg/mL,–
CC(=O)N1CCN(c2ccc(OCCN(CC(O)(Cn3cncn3)c3ccc(F)cc3F)C(=O)CCCl)cc2)CC1 (stereo unspecified),19.4 µg/mL,1.11,1.83 µg/mL,0.95,> 200 µg/mL,190 µg/mL,–
CC(=O)N1CCN(c2ccc(OCCN(Cc3ccc(F)c(F)c3)CC(O)(Cn3cncn3)c3ccc(F)cc3F)cc2)CC1 (stereo unspecified),4.31 µg/mL,4.61,5.85 µg/mL,2,> 200 µg/mL,> 200 µg/mL,–
COc1ccc(C(=O)CN(CCOc2ccc(N3CCN(C(C)=O)CC3)cc2)CC(O)(Cn2cncn2)c2ccc(F)cc2F)cc1OC (stereo unspecified),35 µg/mL,0.71,1.22 µg/mL,2,> 200 µg/mL,> 200 µg/mL,–
